Values quoted from earlier work in US20040137049A1, “Amphotericin b aqueous composition” (priority 2001, published 2004).
Converted amounts (≈) assume the structure as drawn.

Conditions: in methanol

SMILES: C[C@@H]1[C@H](O)[C@@H](C)/C=C/C=C/C=C/C=C/C=C/C=C/C=C/[C@H](O[C@@H]2O[C@H](C)[C@@H](O)[C@H](N)[C@@H]2O)C[C@@H]2O[C@](O)(C[C@@H](O)C[C@@H](O)[C@H](O)CC[C@@H](O)C[C@@H](O)CC(=O)O[C@H]1C)C[C@H](O)[C@H]2C(=O)O [Amphotericin B]
- Solubility: 100 µg/mL (≈ 108 µM)
